Results on 11 molecules are retold here after ChEMBL document CHEMBL1201862, “PubChem BioAssay data set” (2004).

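Method: 48-hour compound exposure of cells in 96-well plates, five concentrations, linear interpolation of endpoints. GI50 marks 50% less growth.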 Calls of active or inactive are those of the source. Rule as the data show it: active = GI50 up to about 1.1 µM and inactive = higher.

Test systems include A498; A549; COLO 205; EKVX; HCC 2998; HOP-92; K562; NCI-H226; NCI-H23; OVCAR-4; RPMI-8226; SF-268; SF-295; SN12C; SNB-19; SW-620; UO-31; NCI/ADR-RES; PC-3.
What all share (test): inhibition of tumour cell growth, NCI panel, 48 h

For `Cc1cc(N(CCC#N)CCC#N)ccc1/C=C1\N=C(c2cc([N+](=O)[O-])ccc2Cl)N(c2cccc(Cl)c2)C1=O`, the GI50 in the assay with A498 is > 100 µM (inactive); with A549, > 100 µM (inactive); in the assay on COLO 205, 87.7 µM (inactive); in the assay with EKVX it was 23.8 µM (inactive); in the assay on HCC 2998 it was > 100 µM (inactive); in the assay on HOP-92, > 100 µM (inactive). The GI50 is 96.6 µM (inactive) in the assay with K562; > 100 µM (inactive) with NCI-H226; > 100 µM (inactive) in the assay with NCI-H23; > 100 µM (inactive) with OVCAR-4; > 100 µM (inactive) with RPMI-8226; > 100 µM (inactive) with SF-268. The GI50 is > 100 µM (inactive) with SF-295; > 100 µM (inactive) with SN12C; < 0.01 µM (active) in the assay on SNB-19; < 0.01 µM (active) in the assay on SW-620; > 100 µM (inactive) in the assay with UO-31.

`ON(CCc1ccncc1)Cc1ccccc1`: the GI50 with A498, with A549, in the assay with COLO 205, in the assay with EKVX, in the assay with HOP-92 and in the assay on K562 was > 100 µM (inactive) throughout. The GI50 in the assay with NCI-H226, in the assay with NCI-H23, in the assay with NCI/ADR-RES, with OVCAR-4, in the assay on RPMI-8226 and with SF-268 was > 100 µM (inactive) throughout. The GI50 in the assay with SF-295, in the assay on SN12C, in the assay on SNB-19, with SW-620 and in the assay on UO-31 was > 100 µM (inactive) each time.

On to `O=C1[C@@H]2C(c3ccccc3F)=NO[C@@H]2C(=O)N1c1ccc(Cc2ccc(N3C(=O)[C@H]4C(c5ccccc5F)=NO[C@H]4C3=O)cc2)cc1`, for which the GI50 in the assay with A498 is > 100 µM (inactive); with A549, > 100 µM (inactive); in the assay with COLO 205, > 100 µM (inactive); in the assay on EKVX, > 100 µM (inactive); in the assay on HCC 2998, > 100 µM (inactive); in the assay with HOP-92 it was 34.4 µM (inactive). Besides, the GI50 with K562 is > 55.1 µM (inactive); in the assay with NCI-H226 it was > 100 µM (inactive); in the assay on NCI-H23, > 100 µM (inactive); in the assay with OVCAR-4 it was > 100 µM (inactive); in the assay with RPMI-8226, 29.4 µM (inactive); with SF-268, > 100 µM (inactive). The GI50 was > 100 µM (inactive) in the assay on SF-295; > 100 µM (inactive) in the assay on SN12C; > 100 µM (inactive) with SNB-19; > 75.7 µM (inactive) with SW-620; > 100 µM (inactive) in the assay on UO-31.

On to `CCOC(=O)CCn1ncc(Cl)c(Cl)c1=O`, for which the GI50 with A498 is 22.7 µM (inactive); in the assay with A549, 15.6 µM (inactive); in the assay on COLO 205 it was 9.23 µM (inactive); in the assay with EKVX it was 18.7 µM (inactive); in the assay on HCC 2998, 3.93 µM (inactive); in the assay on HOP-92, 11.9 µM (inactive). In addition, the GI50 in the assay on K562 is 2.79 µM (inactive); in the assay with NCI-H226 it was 10.9 µM (inactive); in the assay with NCI-H23 it was 2.27 µM (inactive); in the assay with OVCAR-4, 1.54 µM (inactive); in the assay on RPMI-8226, 2.38 µM (inactive); with SF-268, 7.55 µM (inactive). Also, the GI50 with SF-295 was 19.5 µM (inactive); in the assay with SN12C it was 13.7 µM (inactive); with SNB-19, 13.5 µM (inactive); with SW-620 it was 3.31 µM (inactive); in the assay on UO-31, 15.7 µM (inactive).

`CCc1cn2c(/C=N/N=C(N)N)c(-c3cc(C)c(Cl)cc3Cl)nc2s1`: the GI50 in the assay on A498 was 1.77 µM (inactive); in the assay on A549, 1.67 µM (inactive); in the assay on COLO 205, 1.64 µM (inactive); in the assay on HOP-92 it was 1.64 µM (inactive); with K562 it was 1.01 µM (active); in the assay with NCI-H226, 1.26 µM (inactive). Further, the GI50 in the assay with NCI-H23 is 1.77 µM (inactive); with NCI/ADR-RES, 3.95 µM (inactive); in the assay on OVCAR-4, 1.42 µM (inactive); in the assay with PC-3, 1.56 µM (inactive); with RPMI-8226, 1.24 µM (inactive); in the assay with SF-268, 1.98 µM (inactive). For the same molecule, the GI50 in the assay on SF-295 was 0.7 µM (active); in the assay with SNB-19, 1.54 µM (inactive); with SW-620 it was 1.64 µM (inactive); with UO-31 it was 1.64 µM (inactive).

`O=C(O)c1[nH]c(C(=O)O)c(CC(F)(F)C(F)(F)C(F)(F)F)c1CC(F)(F)C(F)(F)C(F)(F)F`: the GI50 with A498 is > 100 µM (inactive); in the assay on A549, > 100 µM (inactive); with COLO 205, > 100 µM (inactive); in the assay on EKVX it was > 100 µM (inactive); in the assay on HCC 2998 it was > 100 µM (inactive); in the assay on HOP-92, 39.9 µM (inactive). The GI50 in the assay on K562, with NCI-H226, in the assay on NCI-H23, in the assay on OVCAR-4, in the assay on RPMI-8226 and in the assay with SF-268 was > 100 µM (inactive) in each case. For the same molecule, the GI50 with SF-295, in the assay with SN12C, in the assay with SNB-19, with SW-620 and in the assay with UO-31 was > 100 µM (inactive) throughout.

For `COc1nc(/C=N/NC(N)=S)nc(OC)n1`, the GI50 with A498 is 33.7 µM (inactive); in the assay on A549 it was 56.6 µM (inactive); in the assay with COLO 205 it was > 100 µM (inactive); in the assay with EKVX it was > 100 µM (inactive); with HCC 2998, 47.1 µM (inactive); with HOP-92, > 100 µM (inactive). Moreover, the GI50 in the assay with K562 is > 100 µM (inactive); with NCI-H226 it was 69.7 µM (inactive); with NCI-H23, > 100 µM (inactive); in the assay on OVCAR-4, > 100 µM (inactive); in the assay with RPMI-8226 it was > 100 µM (inactive); in the assay with SF-268, 61.7 µM (inactive). The GI50 in the assay on SF-295 was 42.3 µM (inactive); in the assay on SN12C it was 71.6 µM (inactive); with SNB-19 it was > 100 µM (inactive); in the assay with SW-620 it was > 100 µM (inactive); in the assay on UO-31 it was 56.1 µM (inactive).

Turning to `CNC(=O)NCCCC(NC(C)=O)C(=O)NCc1ccccc1` (stereo not given), the GI50 in the assay on A498 is > 100 µM (inactive); in the assay with A549, > 100 µM (inactive); in the assay on COLO 205, > 100 µM (inactive); in the assay with EKVX, > 100 µM (inactive); with HCC 2998 it was > 100 µM (inactive); with HOP-92, 92.9 µM (inactive). For the same molecule, the GI50 with K562, with NCI-H226, in the assay on NCI-H23, in the assay on OVCAR-4, in the assay on RPMI-8226 and in the assay with SF-268 was > 100 µM (inactive) each time. Besides, the GI50 in the assay on SF-295, in the assay with SN12C, with SNB-19, in the assay with SW-620 and with UO-31 was > 100 µM (inactive) each time.

Turning to `Cc1nc(-c2nc(C)c(C(=O)NNC(=O)C[n+]3ccccc3)s2)sc1C(=O)NNC(=O)C[n+]1ccccc1`, the GI50 in the assay on A498 is 58.6 µM (inactive); in the assay on A549, > 100 µM (inactive); with COLO 205, > 100 µM (inactive); in the assay on EKVX, 97.3 µM (inactive); with HCC 2998 it was > 100 µM (inactive); with HOP-92, 27.5 µM (inactive). In addition, the GI50 with K562 was 78.2 µM (inactive); in the assay with NCI-H226, 39.5 µM (inactive); in the assay on NCI-H23, 45.7 µM (inactive); in the assay with RPMI-8226, 64.6 µM (inactive); in the assay on SF-268 it was 39.7 µM (inactive); in the assay with SF-295, 65.6 µM (inactive). For the same molecule, the GI50 in the assay on SN12C was 67.5 µM (inactive); in the assay on SNB-19, 25.4 µM (inactive); in the assay with SW-620, > 100 µM (inactive); with UO-31, 25.9 µM (inactive).

On to `Nc1ncnc2c1ncn2C1CC(OCc2ccccc2[N+](=O)[O-])C(CO)O1` (stereo not given), for which the GI50 with A498 is > 50 µM (inactive); in the assay on A549, 21.7 µM (inactive); in the assay on COLO 205, 9.2 µM (inactive); with EKVX, 33 µM (inactive); with HCC 2998, 28.8 µM (inactive); in the assay on HOP-92, 21.4 µM (inactive). In addition, the GI50 in the assay on K562 was 16.1 µM (inactive); in the assay on NCI-H226, 11.8 µM (inactive); in the assay on NCI-H23 it was 23 µM (inactive); in the assay with OVCAR-4, 17.4 µM (inactive); in the assay on RPMI-8226, 14.9 µM (inactive); with SF-268, 28.2 µM (inactive). Moreover, the GI50 is 15.6 µM (inactive) in the assay on SF-295; 24.3 µM (inactive) with SN12C; 46.1 µM (inactive) in the assay with SNB-19; 36 µM (inactive) with SW-620; 17 µM (inactive) in the assay with UO-31.

As for `C1=Cc2nc1c(-c1ccccc1)c1nc(c(-c3ccccc3)c3ccc([nH]3)c(-c3ccccc3)c3ccc([nH]3)c2-c2ccccc2)C=C1` [TETRAPHENYLPORPHYRIN], the GI50 with A498, in the assay with A549, in the assay with COLO 205, in the assay on EKVX, in the assay with HCC 2998 and in the assay on HOP-92 was > 100 µM (inactive) each time. The GI50 in the assay with K562, with NCI-H226, with NCI-H23, in the assay with OVCAR-4, in the assay on RPMI-8226 and with SF-268 was > 100 µM (inactive) each time. Moreover, the GI50 in the assay on SF-295, in the assay on SN12C, in the assay with SNB-19, with SW-620 and in the assay with UO-31 was > 100 µM (inactive) throughout.
